Source: patent US20070123537A1, “Quinazoline derivatives for the treatment of herpesviral infections” (GPC Biotech AG, priority 2003, published 2007)
Entries after “also recorded” stand apart in the source; their conditions may differ. Like-named read-outs stand apart in the source and are kept apart here.

Tests used:
[1] = tested on: clinical HCMV isolate R5; experiment: Plaque reduction assay, clinical isolate R5; assay type: cell-based, Human Cytomegalovirus (HCMV); details: GCV sensitive and CDV sensitive isolate; read-out: IC 50, clinical isolate R5
Description: (§1) HCMV reference strain AD 169 was used at an MOI (multiplicity of infection) of 0.004 for the infection of HFFs in 12 well plates as described in FIG. 2. After virus adsorption, the infected cell layers were overlayed with fresh medium containing the compound concentration as indicated in FIG. 2 and 0.3% agarose. After eight days postinfection, a staining of virus plaques was performed by the use of 1% crystal violet. Quantification was achieved by microscopic counting in quadruplicate (infection in duplicate, counting in duplicate).
(§2) Furthermore, clinical isolates of HCMV like R5, R3 and R2 were used for the infection of HFFs in a plaque reduction assay under the conditions described above. Parallel experiments on phenotype characterization , gene sequencing and UL 97-in-cell-activity assay (GCV phosphorylation) with cloned UL 97 were performed (Marschall, M., et al., J. Gen Virol. 2001, 82, 1439-1450).
(§3) Three clinical HCMV strains were investigated on replication in the presence of the selected quinazoline derivatives 3,4-Dichloro-phenyl)-quinazolin-4-yl-amine (compound 37), (3,4-Dichloro-phenyl)-(6-methyl-quinazolin-4-yl)-amine (compound 49) and (4-Bromo-phenyl)-quinazolin-4-yl-amine (compound 98).

[2] = tested on: clinical HCMV strain R2; experiment: Plaque reduction assay, clinical isolate R2; assay type: cell-based, Human Cytomegalovirus (HCMV); details: Human betaherpesvirus 5; GCV- and CDV-resistant strain; read-out: IC 50, clinical strain R2
Description: as §1, §2, §3

[3] = tested on: clinical HCMV isolate R3; experiment: Plaque reduction assay, clinical isolate R3; assay type: cell-based, Human Cytomegalovirus (HCMV); details: partially GCV resistant, CDV sensitive isolate; read-out: IC 50, clinical isolate R3
Description: as §1, §2, §3

[4] = tested on: HCMV mutant AD169deIUL97; experiment: Plaque reduction assay with UL97-deleted HCMV mutant; assay type: cell-based, Human Cytomegalovirus (HCMV); details: 50 nM NGIC-I, 10 μM compound 37 or 2 μM CDV
Description: FIG. 3: Replication of UL97-deleted HCMV in the presence of pUL97 inhibitors. Plaque assays were performed with HCMV mutant AD169deIUL97, carrying a deletion in the UL97 gene, in the presence of 0.1% DMSO (no inhib.), 50 nM NGIC-I, 10 μM compound 37 or 2 μM CDV as indicated.
To confirm the conclusion that pUL97 is the target for the antiviral activity of quinazolines, we performed an experiment with an UL97-deleted mutant of HCMV (AD169deIUL97) (Prichard, M. N., Gao, N., Jairath, S., Mulamba, G., Krosky, P., Coen, D. M., Parker, B. O., and Pari, G. S., J. Virol. […], 73, 5663).

[5] = tested on: HCMV AD-169; experiment: HCMV infection of HFFs, reporter gene based antiviral assay; assay type: cell-based, Human Cytomegalovirus (HCMV); details: for HCMV AD 169 Replication [%] of control at 3 μM: 3 μM compound, HFFs, reporter gene activity after seven days; for IC50: replication of HCMV strain AD 169 in HFF cells, read-out: HCMV AD 169 IC 50
Description: To examine the effect of the quinazoline derivatives on HCMV replication, HCMV infections were performed in a cellular system.
Human foreskin fibroblasts (HFFs) were grown to subconfluency in 12 well plates and infected with 0.25 tissue culture infectious doses of HCMV AD-169 carrying a reporter gene (HCMV based antiviral assay). Quinazoline derivatives (stocks in DMSO (Dimethylsulfoxide)) were diluted in culture medium to the concentrations indicated and added to the cells immediately after virus adsorption. The success of infection (reporter gene expressing cells) and the lack of cytotoxicity of the compound (confluent cell layer) was monitored by microscopy. After seven days, cell layers were harvested, lysed and subjected to the automated fluorometry measurement of reporter gene activity. Each panel refers to a determination in quadruplicate (infection in duplicate, lysate preparation and measurement in duplicate).

[6] = target: T1, viral kinase UL-97 (Human cytomegalovirus, UniProt P16788); experiment: UL97 Kinase-Assay on Immobilon Plate; assay type: biochemical
T1 construct: The UL-97 gene was cloned into a baculovirus vector in order to produce GST (glutathione S-transferase) fusion protein; GST; made in house; host or cells: Sf9 insect cells (baculovirus)
Description: UL97 Kinase-Assay on Immobilon Plate
The effect of quinazoline derivatives on the activity of the viral kinase UL-97 was tested. This kinase is derived from human cytomegalovirus (HCMV) (Marschall, M., et al., J. Gen Virol. 2001, 82,1439-1450.). The UL-97 gene was cloned into a baculovirus vector in order to produce GST (glutathione S-transferase) fusion protein. Insect cells (Sf9) were infected and GST-UL-97 purified via glutathione affinity columns according to standard procedures.
The UL-97 kinase reaction was performed as described (Marschall M. et aL, J. Gen. Virol. 2001, 82, 1439-1450). Briefly, 10 μl Assay buffer (3 μM ATP, 60 μg/ml myelin basic protein (MBP) as substrate), 1,0 μCi gamma[^33P]ATP and 10 μp, Basic buffer (20mM Tris-HCl 7.5, 500 μM MnCl2, 1 mM DTT (dithiothreitol)) were given to the test tube before adding various concentrations of the quinazoline derivatives. The reaction was started by adding 0.2 μl UL97 kinase, purified from infected Sf9-insect cells as described above. The total volume was adjusted with Basic buffer to a final volume of 30 μl. The reaction mix was incubated for 1 hr at 30° C. For negative control, 10 μl 0.1 M EDTA (ethylene diamine tetraacetate) was added to reaction mix before addition of UL-97 protein kinase. The reaction was stopped by addition of 10 μl 0.1 M EDTA.
Measuring Incorporation of Radioactivity
An Immobilon plate (Millipore) was rinsed with 50 μl methanol/well. Following addition of 100 μl 0.1 M EDTA, 20 μl of each kinase reaction mix was added to one well of the Immobilon plate. Each well was washed 4× with 250 μl 0.75% phosphoric acid and 1× with 50 μl methanol. After addition of 50 μl scintillation cocktail (Roth, Germany) per well incorporation of radioactivity was measured using a Betareader (Wallac) and enzymatic activity calculated.

[7] = target: T2, UL 97 (Human cytomegalovirus, UniProt P16788); experiment: UL 97 in-cell activity: protection of HEK 293 cells ectopically expressing UL 97 against toxic GCV; assay type: cell-based, human cytomegalovirus (HCMV); details: HEK 293 cells expressing UL 97
T2 construct: expressed in transfected cells; host or cells: HEK 293
Description: as §2
Furthermore, (IC50)-values of HCMV replication was measured for some compounds in a cellular system. Some quinazoline derivatives protect HEK 293 cells ectopially expressing UL 97 against toxic concentrations of GCV (10 and 20 μM respectively).

[8] = tested on: HCMV reference strain AD 169; experiment: Plaque reduction assay, HCMV AD 169 in HFFs; assay type: cell-based, Human Cytomegalovirus (HCMV); details: Human betaherpesvirus 5, 192 h, read-out: IC50 in the plaque reduction assay
Description: as §1

[9] = tested on: HEK 293 cells; experiment: Toxicity assay in HEK 293 cells; assay type: cell-based
Description: Toxicity Assay: Toxicity of the quinazoline derivatives was measured by incubating HEK 293 cells with 10 μM of each derivative. The corresponding amount of DMSO served as control.

[10] = 3 μM ATP, MBP substrate, read-out: UL 97 IC 50
[11] = Human betaherpesvirus 5, AD169, HFF
[12] = HCMV AD 169, HFFs, eight days postinfection

T1 sequence (P16788 whole entry, the tested form may be a part): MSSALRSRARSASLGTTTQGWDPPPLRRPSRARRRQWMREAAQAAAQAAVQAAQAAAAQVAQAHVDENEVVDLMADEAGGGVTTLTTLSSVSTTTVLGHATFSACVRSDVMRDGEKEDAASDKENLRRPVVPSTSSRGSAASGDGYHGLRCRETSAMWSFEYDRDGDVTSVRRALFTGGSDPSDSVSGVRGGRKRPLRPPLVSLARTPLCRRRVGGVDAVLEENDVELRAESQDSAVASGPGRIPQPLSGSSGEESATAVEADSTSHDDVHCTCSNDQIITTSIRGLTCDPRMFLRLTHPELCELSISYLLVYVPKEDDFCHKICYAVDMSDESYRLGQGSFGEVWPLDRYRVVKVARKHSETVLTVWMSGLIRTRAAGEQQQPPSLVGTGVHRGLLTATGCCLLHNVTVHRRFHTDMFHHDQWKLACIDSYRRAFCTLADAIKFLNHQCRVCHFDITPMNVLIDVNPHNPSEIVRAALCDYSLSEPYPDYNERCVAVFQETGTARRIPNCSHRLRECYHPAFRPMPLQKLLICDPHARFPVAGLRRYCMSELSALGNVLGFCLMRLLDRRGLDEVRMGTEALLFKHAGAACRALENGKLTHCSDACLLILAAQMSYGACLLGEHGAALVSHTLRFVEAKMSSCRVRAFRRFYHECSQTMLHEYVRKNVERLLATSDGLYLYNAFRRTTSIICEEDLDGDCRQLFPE
T2 sequence (P16788 whole entry): as the sequence (P16788 whole entry, the tested form may be a part) above

| Structure (SMILES) | HCMV AD 169 Replication [%] of control at 3 μM [5] | inhibition of UL 97-kinase activity (in words) [6] | IC50 [6, 10] | IC50 [5, 11] | further results |
| --- | --- | --- | --- | --- | --- |
| Nc1ccn(C[C@@H](CO)OCP(=O)(O)O)c(=O)n1 [CDV, Cidofovir] |  |  |  |  | IC50 [1]: 700 nM; IC50 [2]: 4200 nM; IC50 [3]: 350 nM; effect on replication of AD169deIUL97 (plaque assay) [4]: complete inhibition; also recorded: efficiently blocked |
| COc1cc2ncnc(Nc3ccc(Br)cc3)c2cc1OC [Compound 31, (4-Bromo-phenyl)-(6,7-dimethoxy-quinazolin-4-yl)-amine] | 60% | potent inhibitors | 1200 nM |  |  |
| Clc1ccc(Nc2ncnc3ccccc23)cc1Cl [Compound 37, (3,4-Dichloro-phenyl)-quinazolin-4-yl-amine] | 45% | potent inhibitors | 40 nM | 2000 to 3000 nM | UL 97 GCV [%] growth at conc. [μM] ([7]; at 10 μM): 80%; UL 97 GCV [%] growth at conc. [μM] ([7]; at 20 μM): 50%; IC50 [5]: 3000 nM; IC50 [8, 12]: 2500 to 5000 nM; effect on replication of AD169deIUL97 (plaque assay) [4]: only little or no effect; effect on replication of AD169deIUL97 (plaque assay) ([4]; listed as compound 37): not; Viability [%] at 10 μM [9]: 77% |
| Cc1ccc2ncnc(Nc3ccc(Br)cc3)c2c1 [Compound 43, (4-Bromo-phenyl)-(6-methyl-quinazolin-4-yl)-amine] | 20% | potent inhibitors | > 100 nM |  |  |
| Cc1ccc2ncnc(Nc3ccc(Cl)c(Cl)c3)c2c1 [Compound 49, (3,4-Dichloro-phenyl)-(6-methyl-quinazolin-4-yl)-amine] | 20% | potent inhibitors | 20 nM | 2000 to 3000 nM | UL 97 GCV [%] growth at conc. [μM] ([7]; at 10 μM): 80% at 10 μM; IC50 [5]: 2500 nM; IC50 [8]: 2500 to 5000 nM; Viability [%] at 10 μM [9]: 78% |
| Fc1ccc2c(Nc3cccc(Cl)c3)ncnc2c1 [Compound 70, (3-Chloro-phenyl)-(7-fluoro-quinazolin-4-yl)-amine] |  | potent inhibitors |  |  |  |
| Ic1ccc(Nc2ncnc3ccccc23)cc1 [Compound 72, (4-lodo-phenyl)-quinazolin-4-yl-amine] |  | potent inhibitors | 200 nM |  |  |
| c1ccc(Nc2ncnc3ccccc23)cc1 [Compound 84, Phenyl-quinazolin-4-yl-amine] |  |  |  |  | IC50 [6]: 300 nM |
| Clc1cccc(Nc2ncnc3ccccc23)c1 [Compound 87, (3-Chloro-phenyl)-quinazolin-4-yl-amine] |  | potent inhibitors | 700 nM |  |  |
| Fc1ccc(Nc2ncnc3ccccc23)cc1 [Compound 88, (4-Fluoro-phenyl)-quinazolin-4-yl-amine] |  | potent inhibitors | 200 nM |  |  |
| CCc1cccc(Nc2ncnc3ccc(C)cc23)c1 [Compound 89, (3-Ethyl-phenyl)-(6-methyl-quinazolin-4-yl)-amine] |  | potent inhibitors |  |  |  |
| Brc1ccc(Nc2ncnc3ccccc23)cc1 [Compound 98, (4-Bromo-phenyl)-quinazolin-4-yl-amine] | 30% | potent inhibitors | 170 nM | 2000 to 3000 nM | UL 97 GCV [%] growth at conc. [μM] ([7]; at 10 μM): 80%; UL 97 GCV [%] growth at conc. [μM] ([7]; at 20 μM): 60%; IC50 [5]: 2000 nM; IC50 [8, 12]: 2500 to 5000 nM; Viability [%] at 10 μM [9]: 75% |
| Nc1nc(O)c2ncn(COC(CO)CO)c2n1 [ganciclovir] |  |  |  | 3000 to 4000 nM | IC50 [1]: 4100 nM; IC50 [2]: 34000 nM; IC50 [3]: 20000 nM; IC50 [8, 12]: 4000 to 6000 nM |
